4 compounds from patent publication US20090042901A1, “AGENT FOR PREVENTION/THERAPY OF DISEASE CAUSED BY KERATINOCYTE GROWTH” (KOWA CO., LTD., priority 2005, published 2009) can be followed below.

For test [1], the system named is Normal human keratinocytes (newborn infant foreskin-derived epidermal keratinocyte). In words: Growth of normal human keratinocytes (H3-thymidine uptake). It is filed as cell-based. The conditions noted are these: for pIC50: Homo sapiens, Keratinocyte, H3-thymidine uptake, 22 h + 2 h culture, 0.01 to 10 μM, read-out: Human keratinocyte growth inhibition IC50. How it is done: Normal human keratinocytes (purchased from Kurabo Industries, Ltd.) were inoculated on a 48-well plate (Coster Corp.) at a concentration of 4×10^4 cells/well/500 μL, and were cultured overnight at 37° C. in the presence of 5% CO2. A compound of the present invention or activated vitamin D3 (Calcitriol; Wako Pure Chemical Industries, Ltd.) was added to a final concentration of 0.01 to 10 μM, and the cells were cultured for 22 hours. H^3-thymidine (Amersham plc.) was added, and the cells were incubated for another 2 hours. Subsequently, the cells were recovered after washing, and in a liquid scintillation counter (Packard Instrument Company, Inc.), the radioactivity taken up by the cells was measured. The results are presented as a ratio of the radioactivity taken up by the cells upon drug addition, with respect to the radioactivity of the case with no drug addition (Control), which was taken as 100%. The IC50 value, which is the concentration of the drug for inhibiting the uptake of radioactivity to 50% with respect to the control, was lower in the case of any of the Compounds 1 to 8 than in the case of Calcitriol.

Test [2] relates to VCAM-1 expression. In words: VCAM-1 expression inhibitory activity in TNFα-stimulated HUVEC. It is filed as cell-based. Conditions: Homo sapiens, TNFα 10 ng/mL, 4.5 hours, read-out: VCAM-1 expression inhibitory action IC50. As for the experimental part: Human umbilical vein endothelial cells (HUVEC) (Sanko Junyaku Co., Ltd.) were suspended in EGM-2 medium (Sanko Junyaku Co., Ltd.) at a concentration of 5×10^4 cells/mL, and were inoculated on a 96-well plate (Corning Corp.) at a concentration of 1×10^4 cells/well. The cells were cultured at 37° C. in the presence of 5% CO2 for 4 days, then 100 μL of the medium was removed, and 25 μL each of the substance under test and TNFα (final concentration 10 ng/mL, PeproTech, Inc.) were added. After incubating the cells for 4.5 hours at 37° C., the medium was removed, and each well was washed once with 100 μL of Hank's Balanced Salt Solution containing 0.5% bovine serum albumin and 0.02% sodiumazide (HBSS/BSA). Subsequently, 30 μL of a blocking solution (1% whole goat serum (ICN Biomedicals, Inc.)/HBSS/BSA) was added, and the plate was left to stand for 30 minutes on the ice. After washing once with 100 μL of HBSS/BSA, 1 μg/mL of anti-human VCAM-1 antibody (Genzyme-Techne, Inc.) was added to each well in an amount of 30 μL, and the plate was incubated on the ice for 1 hour. After washing three times with HBSS/BSA (200 μL), peroxidase-labeled goat anti-mouse IgG antibody (Pierce Biotechnology, Inc.) diluted 2000-folds with HBSS/BSA was added in an amount of 30 μL/well, and was allowed to react for 1 hour. After washing 5 times with HBSS/BSA as described above, 100 μL/well of TMB substrate (Moss Inc.) was added, an enzymatic reaction was allowed to proceed for 15 to 30 minutes at 25° C., and then 1 mol/L sulfuric acid was added in an amount of 25 μL/well to stop the reaction. The absorbance at 492 nm was measured using a reference wavelength of 620 nm and using a 96-well plate spectrophotometer, Multiscan MS-UV (Labsystems, Inc.). The inhibitory rate was determined by taking the absorbance for the case of TNFα stimulation without drug addition, as 100%. In addition, the measurement was performed three times for each group.

Test [3] concerns TPA-stimulated SKH1-hrBR-Hairless mouse. In words: Skin thickening in TPA-stimulated hairless mouse. Conditions: dorsal application of 50 μL after 10 nmol TPA, measured after 24 hours (FIG. 1). In kind it is in vivo. As for the experimental part:
As an animal model for psoriasis, hairless mice stimulated with 12-O-tetradecanoylphorbol-13-acetate (hereinafter, referred to as TPA) were used (Sato, et al., Dermatology (1996) 192, 233-238). That is, on the dorsal side of a 7 to 8 weeks old female SKH1-hrBR-Hairless mouse (Charles River Laboratories Japan, Inc.), 10 nmol of TPA dissolved in acetone was applied, and then 50 μL of either the drug dissolved in acetone or Bonalfa (registered trademark) High (Teijin Pharma, Ltd.) was applied. After 24 hours, the thickness of the skin on the dorsal side was measured using a dial thickness gauge (Peacock G-1A, Ozaki MFG. Co., Ltd.), and the difference between the measured skin thickness and the skin thickness measured before TPA application was determined. The thickening of the skin thickness was suppressed by the application of the activated vitamin D3 preparation (Bonalfa (registered trademark) High). Also, the thickening of the skin thickness was suppressed by the application of the Compound 4.

The structures appear in SMILES notation. pIC50: −log10 of the molar value. Like-named read-outs stand apart in the source and are kept apart here.

By pIC50 is commonly meant the negative decadic logarithm of the IC50, by convention in mol/L.

`COc1cc(-c2cc(CN3CCC(N(C)Cc4ccnc(-c5cc(OC)c(OC)c(OC)c5)c4)CC3)ccn2)cc(OC)c1OC` [Compound 1]: the pIC50 in test [1] (24 h) was 7.18; in test [2], 7.10.
In the case of `COc1cc(-c2cncc(CN(c3ccc(SC)cc3)C3CCN(Cc4ccnc(-c5cc(OC)c(OC)c(OC)c5)c4)CC3)c2)cc(OC)c1OC` [Compound 2], the pIC50 in test [1] (24 h) is 7.36; in test [2], 8.30.
For the compound `COc1cc(OC)cc(N(Cc2ccnc(-c3cc(OC)c(OC)c(OC)c3)c2)C2CCN(Cc3ccnc(-c4cc(OC)c(OC)c(OC)c4)c3)CC2)c1` [Compound 3], the pIC50 in test [1] (24 h) is 7.31.
Take `COc1ccc(N(Cc2ccnc(-c3cc(OC)c(OC)c(OC)c3)c2)C2CCN(Cc3ccnc(-c4cc(OC)c(OC)c(OC)c4)c3)CC2)cc1` [Compound 4]: the “Thickening of the skin thickness” value in test [3] is listed as “suppressed”. Also, the pIC50 in test [1] (24 h) is 6.61; in test [1], 6.61; in test [2], 7.70. Also, the “Efficacy relative to Calcitriol (keratinocyte growth inhibition IC50)” value in test [1] (compared with Calcitriol) is on record as “about 8 times”.
